Measured values as given in the supplement of paper PMC10307832.

How the values were obtained:
Assay in all cases: relative viability (nuclei count vs DMSO), 5 days (fraction); higher = more cells survive
GSK-J4 + Dasatinib = compound: CCOC(=O)CCNc1cc(N2CCc3ccccc3CC2)nc(-c2ccccn2)n1 [GSK-J4] + Cc1nc(Nc2ncc(C(=O)Nc3c(C)cccc3Cl)s2)cc(N2CCN(CCO)CC2)n1 [Dasatinib] (partner 0.075 µM)
In short: (§1)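 Relative viability was taken as the ratio of nuclei in treated wells to nuclei in vehicle wells. Lung cancer cell lines in 1536-well plates received compounds by pin tool one day after seeding, either one drug alone or a fixed anchor-drug dose plus five library-drug doses (not always all listed) in √10 steps. Nuclei were counted on 4× images after 5 days of treatment, and values are medians of duplicate plates.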

AZ3146 + Bortezomib = compound: CN1CCC(CC1)OC2=CC(=C(C=C2)NC3=NC=C4C(=N3)N(C(=O)N4C)C5CCCC5)OC [AZ3146] + CC(C)C[C@H](NC(=O)[C@H](Cc1ccccc1)NC(=O)c1cnccn1)B(O)O [Bortezomib] (partner 0.002 µM)
In short: as §1

AZ3146 + Tozasertib = compound: CN1CCC(CC1)OC2=CC(=C(C=C2)NC3=NC=C4C(=N3)N(C(=O)N4C)C5CCCC5)OC [AZ3146] + Cc1cc(Nc2cc(N3CCN(C)CC3)nc(Sc3ccc(NC(=O)C4CC4)cc3)n2)n[nH]1 [Tozasertib] (partner 0.1 µM)
In short: as §1

AZ3146 + Pemetrexed = compound: CN1CCC(CC1)OC2=CC(=C(C=C2)NC3=NC=C4C(=N3)N(C(=O)N4C)C5CCCC5)OC [AZ3146] + Nc1nc2[nH]cc(CCc3ccc(C(=O)N[C@@H](CCC(=O)O)C(=O)O)cc3)c2c(=O)[nH]1 [Pemetrexed] (partner 0.2 µM)
In short: as §1

Cell Line | relative viability (GSK-J4 + Dasatinib; first compound 0.5 µM) | relative viability (GSK-J4 + Dasatinib; first compound 1.581 µM) | relative viability (GSK-J4 + Dasatinib; first compound 15.81 µM) | relative viability (GSK-J4 + Dasatinib; first compound 50 µM) | relative viability (AZ3146 + Bortezomib; first compound 0.08 µM) | relative viability (AZ3146 + Bortezomib; first compound 0.253 µM) | relative viability (AZ3146 + Bortezomib; first compound 0.8 µM) | relative viability (AZ3146 + Bortezomib; first compound 2.53 µM) | relative viability (AZ3146 + Bortezomib; first compound 8 µM) | relative viability (AZ3146 + Tozasertib; first compound 0.08 µM) | relative viability (AZ3146 + Tozasertib; first compound 0.253 µM) | relative viability (AZ3146 + Tozasertib; first compound 0.8 µM) | relative viability (AZ3146 + Tozasertib; first compound 2.53 µM) | relative viability (AZ3146 + Tozasertib; first compound 8 µM) | relative viability (AZ3146 + Pemetrexed; first compound 0.08 µM) | relative viability (AZ3146 + Pemetrexed; first compound 0.253 µM) | relative viability (AZ3146 + Pemetrexed; first compound 0.8 µM) | relative viability (AZ3146 + Pemetrexed; first compound 2.53 µM) | relative viability (AZ3146 + Pemetrexed; first compound 8 µM) | relative viability (GSK-J4 + Dasatinib; first compound 5 µM)
HCC-366 | 0.597 | 0.537 | 0.415 | 0.501 | 0.983 | 1.05 | 1.08 | 1.06 | 0.735 | 0.0936 | 0.1 | 0.0606 | 0.044 | 0.0336 | 0.166 | 0.205 | 0.198 | 0.157 | 0.148 | –
HCC-827 | 0.335 | 0.356 | 0.312 | 0.289 | 0.933 | 1.07 | 1.11 | 1.09 | 1.09 | 0.45 | 0.454 | 0.414 | 0.427 | 0.368 | 0.291 | 0.244 | 0.252 | 0.269 | 0.248 | 0.435
HOP-62 | 0.625 | 0.639 | 0.567 | 0.525 | 0.401 | 0.967 | 0.694 | 0.851 | 0.44 | 0.325 | 0.447 | 0.345 | 0.348 | 0.291 | 0.242 | 0.328 | 0.339 | 0.305 | 0.365 | 0.269
IA-LM | – | – | – | – | 0.643 | 0.775 | 0.759 | 0.695 | 0.264 | – | – | – | – | – | – | – | – | – | – | –
LC-2-ad | 0.689 | 0.429 | 0.44 | 0.351 | 0.857 | 1.05 | 1.03 | 0.996 | 0.668 | 0.323 | 0.44 | 0.424 | 0.365 | 0.269 | 0.245 | 0.29 | 0.271 | 0.262 | 0.259 | 0.535
LCLC-97TM1 | 0.596 | 0.724 | 0.825 | 0.555 | 0.53 | 0.792 | 0.569 | 0.973 | 0.172 | 0.206 | 0.216 | 0.208 | 0.228 | 0.146 | 0.142 | 0.184 | 0.233 | 0.192 | 0.163 | 0.951
LK-2 | 0.354 | – | 0.229 | 0.241 | – | – | – | – | – | 0.175 | 0.186 | 0.188 | 0.157 | 0.196 | – | – | 0.168 | 0.318 | 0.307 | 0.267
NCI-H358 | 0.201 | 0.132 | 0.152 | 0.158 | – | – | – | – | – | 0.0884 | 0.107 | 0.105 | 0.123 | 0.12 | 0.153 | 0.168 | 0.192 | 0.171 | 0.156 | 0.139
NCI-H522 | 0.83 | 0.803 | 0.671 | 0.664 | – | – | – | – | – | 0.533 | 0.512 | 0.582 | 0.455 | 0.587 | 0.917 | 0.905 | 0.898 | 1.09 | 0.968 | 0.624
NCI-H727 | 0.338 | 0.305 | 0.298 | 0.223 | 1.02 | 0.953 | 0.717 | 0.934 | 1.18 | 0.546 | 0.495 | 0.455 | 0.575 | 0.439 | – | – | – | – | – | 0.522
